Experimental findings from patent US5242912A, “Cyclic anthranilic acid derivatives and process of preparing the same” (Kyorin Pharmaceutical Co., Ltd., priority 1989, dated 1993) are described below.

One test deals with vascular permeability. Put plainly: Inhibition of increased vascular permeability (acetic acid i.p., Evans blue dye leakage). In kind it is in vivo, Male ddy mice. The note with it: 100 mg/kg p.o., N = 9. The procedure: Inhibition of increased vascular permeability
Male ddy mice (6 weeks of age) were used in this experiment. Example 9 compound suspended in 5% gum arabic solution was administered p.o., 45 minutes before the i.v. injection of 1.0% Evans blue solution (0.1 ml/10 g B.W.). Immediately after the i.v. injection, 1.0% acetic acid solution was administered i.p. (0.1 ml/10 g B.W.). The mice were killed 30 minutes after the acetic acid injection. Peritoneal exudate was collected by washing out the peritoneal cavity with physiological saline and centrifuged at 3,000 r.p.m. After the centrifugation, spectrophotometry of the supernatant was measured at 630 nm. Results were expressed as dye leakage and percent inhibition.

The target of a further test is Bovine serum albumin (Bos taurus, UniProt P02769). Put plainly: biochemical.
Chain of Bovine serum albumin (P02769 25-607): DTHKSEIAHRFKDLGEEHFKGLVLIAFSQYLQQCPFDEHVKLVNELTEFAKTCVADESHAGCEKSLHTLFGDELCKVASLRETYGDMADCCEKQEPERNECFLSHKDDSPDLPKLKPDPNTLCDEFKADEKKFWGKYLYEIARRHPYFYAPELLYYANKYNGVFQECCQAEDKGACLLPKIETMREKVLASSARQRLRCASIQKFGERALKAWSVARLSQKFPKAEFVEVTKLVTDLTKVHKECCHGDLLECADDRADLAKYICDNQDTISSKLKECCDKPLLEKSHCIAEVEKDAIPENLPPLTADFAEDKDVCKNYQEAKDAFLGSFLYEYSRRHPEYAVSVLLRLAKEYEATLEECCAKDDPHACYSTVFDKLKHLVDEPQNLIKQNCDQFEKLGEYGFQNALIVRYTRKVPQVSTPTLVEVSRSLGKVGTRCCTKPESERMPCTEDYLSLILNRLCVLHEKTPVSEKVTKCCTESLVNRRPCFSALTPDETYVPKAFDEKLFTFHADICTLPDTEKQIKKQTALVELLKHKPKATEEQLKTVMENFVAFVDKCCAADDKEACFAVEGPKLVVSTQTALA
The next test relates to bone resorption. Briefly: Inhibitory action against bone resorption (45Ca release from embryo front arm bone, IL-1β). In kind it is cell-based. The note with it: Rattus norvegicus; 25 μg/ml, with interleukin-1β, 72 hours; read-out: Inhibitory rate against bone resorption (%). On the procedure:
Inhibitory action against bone resorption
According to Raisz et al method (J. Clin. Invest., 155, 103 (1965)), bone piece of front arm of […] labelled with radioactive calcium (^45 Ca) was prepared in order to measure bone resorption. That is, the radioactive calcium (^45 CaCl2; 200 μCi) was injected under the skin to the back of rats in the 17th day of pregnancy and two days later they were killed with exsanguination by cutting of the carotid artery thereof. After the embryos were picked up and washed with sterilized phosphated buffer solution, the bone of front arm was taken out, which was then rendered free of the attached muscle and cartilage of the both ends, and said piece of bone was cultivated in the culture medium of BGJb.
Next, according to the method of Tsuda et al (J. Bone Miner. Metab., 1, 207 (1986)), the effect of the present invention compound against the bone resorption was determined, which are described as follows.
The piece of bone was put on a milipore-filter, and was pre-cultivated, in a well with 24 holes plate accomodating 0.6 ml culture medium of BGJb, at 37° C. and under 5% carbon dioxide. After the precultivation for 24 hours, said bone with the filter were transferred into a test culture medium added with interleukin-1β (1L-1β) or with both 1L-1β and drugs and the cultivation was continued. After 72 hours cultivation in said test culture medium, 0.3 ml of the supernatant was taken out and ^45 Ca released from the piece of bone was determined. After the piece of bone was immersed in 0.3 ml of 1N hydrochloric acid for more than 1.5 hours, 10 ml of ACSII was added thereto and the radioactivity was determined. Furthermore, the activity of bone resorption was represented by the ratio (percentage) of ^45 Ca released in the supernatant of cultivation to the total radioactivity which had been contained in the piece of bone (the sum of radioactivities in the piece of bone and the supernatant of cultivation). […]

Experimental for Bovine serum albumin: Inhibitory action against thermal denaturation of protein
Bovine serum albumin was dissolved into 1/15M phosphoric acid buffer solution, which was then adjusted to 0.7%. After adding the solution of the present invention compound thereto, it was heated at 65° C. for 7-8 minutes. After cooled, the absorbance at 660 nm was measured, compared with the absorbance of the reference to derive the inhibitory rate and then the concentration necessary to inhibit 50% was obtained.

With `O=C(O)c1cc(Br)cc2c1NCCCC2` [Example 9, 7-Bromo2,3,4,5-tetrahydro-1H-1-benzazepine-9-carboxylic acid], the “Dye leakage (mean ± S.E)” value with vascular permeability (45 minutes before Evans blue, control 25.77 ± 1.81, *significantly different from control, p < 0.01) is 17.43 ± 1.38 µg/mL. Moreover, the “Inhibition (%)” value in the test with vascular permeability worked out at 32.3%. The molecule also showed an IC50 against Bovine serum albumin of 132 µM. With `O=C(O)c1cc([N+](=O)[O-])cc2c1NCCCC2` [Example 10, 7-Nitro-2,3,4,5-tetrahydro-1H-1-benzazepine-9-carboxylic acid], the IC50 against Bovine serum albumin was 71 µM. Turning to `N#Cc1cc2c(c(C(=O)O)c1)NCCCC2` [Example 11 c), 7-Cyano-2,3,4,5-tetrahydro-1H-1-benzazepine-9-carboxylic acid], the inhibition at 25 µg/mL in the test on bone resorption stood at 54%. On the same count and under the same terms, the result for `O=C(O)c1cc2c(c(C(=O)O)c1)NCCCC2` [Example 12, 2,3,4,5-Tetrahydro-1H-1-benzazepine-7,9-di-carboxylic acid] reads 84%; that for `CC(C)Oc1ccc2c(=O)c(-c3ccccc3)coc2c1` [Ipriflavone, 7-isopropoxy isoflavone, reference compound], 58%.

For orientation: IC50 means the point on the concentration scale where inhibition reaches its midpoint. Read a low IC50 as higher potency.
